Measured values taken from paper PMC11062899, “De novo development of small cyclic peptides that are orally bioavailable” (Nature Chemical Biology, 2023).
Where “and” joins values, the source holds several entries; their conditions need not be identical. Identical values can stand only once. Values belong to the compound of their own block, whether it stands above or below them.

Tests used:
human α-thrombin = human α-thrombin (Homo sapiens, UniProt P00734); test: Protease inhibition, Ki for human α-thrombin (fluorogenic substrate Z-Gly-Gly-Arg-AMC); type: biochemical; conditions: replicates R1-R3
In short: (§1)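 Ki derived through Cheng–Prusoff from IC50s (four-parameter logistic fit) against activity of peptide-free controls. Product fluorescence was read every 3 min over 30 min at 25 °C, substrate Z-Gly-Gly-Arg-AMC at 50 μM. Enzyme was 2 nM human or 3 nM rat α-thrombin, pH 7.4 buffer.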

[1] = Peptide stability in simulated intestinal fluid (SIF); type: in vitro ADME, porcine; conditions: simulated gi fluid; 8 h, 37 °C, pH 6.8; read-out: Proteolytic stability: SIF (8 h) % remaining
In short: (§2)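 Peptide from a 1 mM DMSO stock was added to fluid pre-warmed at 37 °C. SGF was pH 1.2 NaCl with porcine pepsin (0.32 g per 100 ml), and SIF was pH 6.8 potassium phosphate with porcine pancreatin (1 g per 100 ml). Supernatant peptide was quantified by LC–MS, with residual expressed as T1/T0.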

porcine pancreatin = test: as above; type: in vitro ADME; conditions: after 8 h vs 0 h (TIC); for SIF stability, Residual peptide Average: average of R1-R3
In short: as §2

[2] = Passive artificial membrane permeability (PAMPA); conditions: for PAMPA permeability: % permeability: 50 μM, 12–18 h, acceptor concentration relative to equilibrium; for Papp at 50 μM / Permeability% Average / Permeability% R1 / Permeability% R3: PAMPA; for Papp at 50 μM: pH 7.4; for Permeability% Average: average of R1-R3; for Permeability% R1: replicate R1; for Permeability% R1 / Permeability% R3: TIC of top well sample relative to sample at theoretical equilibrium; for Permeability% R3: replicate R3
[3] = Metabolic stability in rat liver microsomes (RLMs); conditions: rat, microsomes
rat α-thrombin = biological target: T1, rat α-thrombin (Rattus norvegicus, UniProt P18292); test: Protease inhibition, Ki for rat α-thrombin (fluorogenic substrate Z-Gly-Gly-Arg-AMC); type: biochemical; conditions: replicates R1-R3
T1 construct: rat α-thrombin (Molecular Innovations) were used at final concentrations of 2 nM and 3 nM; purchased Molecular Innovations
In short: as §1

porcine pepsin = biological target: T2, porcine pepsin (Sus scrofa, UniProt P00791); test: Peptide stability in simulated gastric fluid (SGF); type: in vitro ADME; conditions: for SGF stability, Residual peptide Average / SGF stability, Residual peptide: after 8 h vs 0 h (TIC); for SGF stability, Residual peptide Average: average of R1-R3; for SGF stability, Residual peptide: single replicates R1-R3; for remaining at 8 h: simulated gi fluid, 37 °C, pH 1.2, read-out: Proteolytic stability: SGF (8 h) % remaining
T2 construct: 0.32 g of porcine pepsin (Sigma-Aldrich, P7125) was dissolved under gentle agitation; purchased Sigma-Aldrich P7125
In short: as §2

[4] = peptide 1.33E+02 uM, slope of proteolytic substrate cleavage over time
[5] = CL (ul/min/mg protein) R1, RLM CL, replicate R1
[6] = CL (ul/min/mg protein) R2, RLM CL, replicate R2
[7] = CL (ul/min/mg protein) R3, RLM CL, replicate R3
[8] = Half Life (min) R2, RLM metabolic stability, replicate R2, 0-60 min
[9] = Half Life (min) R3, RLM metabolic stability, replicate R3, 0-60 min
[10] = Metabolic stability: Half life T1/2 (min), RLMs, mean and SD, three measurements
[11] = Metabolic stability: RLM CL (ul/min/mg), RLMs, mean and SD, three measurements

T2 sequence (P00791 60-385): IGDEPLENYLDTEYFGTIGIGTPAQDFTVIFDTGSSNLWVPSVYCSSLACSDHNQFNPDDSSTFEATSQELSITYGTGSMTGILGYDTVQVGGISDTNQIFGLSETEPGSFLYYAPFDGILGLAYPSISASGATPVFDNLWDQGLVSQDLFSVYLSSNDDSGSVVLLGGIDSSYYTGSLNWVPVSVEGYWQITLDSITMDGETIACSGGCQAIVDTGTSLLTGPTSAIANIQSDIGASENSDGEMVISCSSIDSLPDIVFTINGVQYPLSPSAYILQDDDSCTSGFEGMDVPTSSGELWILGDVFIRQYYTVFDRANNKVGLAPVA

- Human alpha thrombin inhibition, slope normalized to DMSO (human α-thrombin; peptide 1.02E-03 uM): 93.1 and 89.2 and 94.7
- Human alpha thrombin inhibition, slope normalized to DMSO (human α-thrombin; peptide 1.04E+00 uM): 93.7 and 88.7 and 98.8
- Human alpha thrombin inhibition, slope normalized to DMSO (human α-thrombin; peptide 1.27E-04 uM): 100.2 and 94.8 and 98.1
- Human alpha thrombin inhibition, slope normalized to DMSO (human α-thrombin; peptide 1.30E-01 uM): 94.8 and 90.7 and 96.5
- Human alpha thrombin inhibition, slope normalized to DMSO (human α-thrombin; [4]): 52.1 and 50.8 and 55.1
- Human alpha thrombin inhibition, slope normalized to DMSO (human α-thrombin; peptide 1.63E-02 uM): 97.1 and 95.8 and 94.6
- Human alpha thrombin inhibition, slope normalized to DMSO (human α-thrombin; peptide 1.67E+01 uM): 73.4 and 68.5 and 72.3
- Human alpha thrombin inhibition, slope normalized to DMSO (human α-thrombin; peptide 2.03E-03 uM): 97.3 and 94.1 and 99.2
- Human alpha thrombin inhibition, slope normalized to DMSO (human α-thrombin; peptide 2.08E+00 uM): 89.4 and 90.0 and 79.4
- Human alpha thrombin inhibition, slope normalized to DMSO (human α-thrombin; peptide 2.54E-04 uM): 98.0 and 92.5 and 94.6
- Human alpha thrombin inhibition, slope normalized to DMSO (human α-thrombin; peptide 2.60E-01 uM): 94.5 and 91.9 and 98.0
- Human alpha thrombin inhibition, slope normalized to DMSO (human α-thrombin; peptide 3.18E-05 uM): 100.9 and 96.3 and 98.9
- Human alpha thrombin inhibition, slope normalized to DMSO (human α-thrombin; peptide 3.26E-02 uM): 93.0 and 91.8 and 94.1
- Human alpha thrombin inhibition, slope normalized to DMSO (human α-thrombin; peptide 3.33E+01 uM): 68.4 and 72.8 and 70.8
- Human alpha thrombin inhibition, slope normalized to DMSO (human α-thrombin; peptide 4.07E-03 uM): 96.7 and 91.0 and 96.0
- Human alpha thrombin inhibition, slope normalized to DMSO (human α-thrombin; peptide 4.17E+00 uM): 85.6 and 83.5 and 84.3
- Human alpha thrombin inhibition, slope normalized to DMSO (human α-thrombin; peptide 5.09E-04 uM): 95.1 and 89.7 and 99.5
- Human alpha thrombin inhibition, slope normalized to DMSO (human α-thrombin; peptide 5.21E-01 uM): 94.5 and 87.9 and 92.4
- Human alpha thrombin inhibition, slope normalized to DMSO (human α-thrombin; peptide 6.36E-05 uM): 96.8 and 88.2 and 100.6
- Human alpha thrombin inhibition, slope normalized to DMSO (human α-thrombin; peptide 6.51E-02 uM): 133.7 and 92.1 and 94.3
- Human alpha thrombin inhibition, slope normalized to DMSO (human α-thrombin; peptide 6.67E+01 uM): 63.9 and 63.5 and 65.7
- Human alpha thrombin inhibition, slope normalized to DMSO (human α-thrombin; peptide 8.14E-03 uM): 96.2 (2×) and 90.9
- Human alpha thrombin inhibition, slope normalized to DMSO (human α-thrombin; peptide 8.33E+00 uM): 81.3 and 78.4 and 82.3
- remaining at 8 h [1]: 99 ± 9%
- SIF stability, Residual peptide Average (porcine pancreatin): 98.53
- PAMPA permeability: % permeability [2]: 2.73 ± 1.02%
- Papp at 50 μM [2]: 0.174 ×10⁻⁶ cm/s
- Permeability% Average [2]: 2.7%
- Permeability% R1 [2]: 2.77%
- Permeability% R3 [2]: 1.69%
- microsomal CLint [3, 5]: 117 µL/min/mg
- microsomal CLint [3, 6]: 96.6 µL/min/mg
- microsomal CLint [3, 7]: 95.7 µL/min/mg
- half-life ([3]; Half Life (min) R1, RLM metabolic stability, replicate R1, 0-60 min): 11.8 min
- half-life [3, 8]: 14.3 min
- half-life [3, 9]: 14.5 min
- half-life [3, 10]: 13.5 ± 1.2 min
- microsomal CLint [3, 11]: 103 ± 10 µL/min/mg
- Rat alpha thrombin inhibition, slope normalized to DMSO (rat α-thrombin; [4]): 32.2 and 38.1 and 17.4
- Rat alpha thrombin inhibition, slope normalized to DMSO (rat α-thrombin; peptide 1.67E+01 uM): 45.0 and 46.6 and 55.7
- Rat alpha thrombin inhibition, slope normalized to DMSO (rat α-thrombin; peptide 2.08E+00 uM): 90.4 and 89.1 and 91.4
- Rat alpha thrombin inhibition, slope normalized to DMSO (rat α-thrombin; peptide 3.33E+01 uM): 47.9 and 19.5
- Rat alpha thrombin inhibition, slope normalized to DMSO (rat α-thrombin; peptide 4.17E+00 uM): 77.9 and 77.5 and 82.1
- Rat alpha thrombin inhibition, slope normalized to DMSO (rat α-thrombin; peptide 6.67E+01 uM): 36.2 and 41.8
- Rat alpha thrombin inhibition, slope normalized to DMSO (rat α-thrombin; peptide 8.33E+00 uM): 63.0 and 63.5 and 66.0
- SGF stability, Residual peptide Average (porcine pepsin): 99.57
- SGF stability, Residual peptide (porcine pepsin): 102.25 and 97.75 and 98.72
- remaining at 8 h (porcine pepsin): 100 ± 2%
SMILES: C[C@@H]1NC(=O)[C@@H](NC(=O)c2ccc(Cl)s2)CNC(=O)CCSCc2cccc(n2)CSCCNC1=O [compound 18]

- Human alpha thrombin inhibition, slope normalized to DMSO (human α-thrombin; peptide 1.02E-03 uM): 98.0 and 91.0 and 96.2
- Human alpha thrombin inhibition, slope normalized to DMSO (human α-thrombin; peptide 1.04E+00 uM): 90.3 and 89.1 and 92.4
- Human alpha thrombin inhibition, slope normalized to DMSO (human α-thrombin; peptide 1.27E-04 uM): 96.9 and 100.1 and 95.3
- Human alpha thrombin inhibition, slope normalized to DMSO (human α-thrombin; peptide 1.30E-01 uM): 95.8 and 125.1 and 96.3
- Human alpha thrombin inhibition, slope normalized to DMSO (human α-thrombin; [4]): 74.4 and 73.1 and 82.6
- Human alpha thrombin inhibition, slope normalized to DMSO (human α-thrombin; peptide 1.63E-02 uM): 97.3 and 90.7 and 96.5
- Human alpha thrombin inhibition, slope normalized to DMSO (human α-thrombin; peptide 1.67E+01 uM): 83.1 and 82.1 and 94.4
- Human alpha thrombin inhibition, slope normalized to DMSO (human α-thrombin; peptide 2.03E-03 uM): 96.1 and 96.3 and 98.7
- Human alpha thrombin inhibition, slope normalized to DMSO (human α-thrombin; peptide 2.08E+00 uM): 89.8 and 84.9 and 90.4
- Human alpha thrombin inhibition, slope normalized to DMSO (human α-thrombin; peptide 2.54E-04 uM): 98.3 and 94.9 and 77.9
- Human alpha thrombin inhibition, slope normalized to DMSO (human α-thrombin; peptide 2.60E-01 uM): 93.9 and 90.6 and 94.3
- Human alpha thrombin inhibition, slope normalized to DMSO (human α-thrombin; peptide 3.18E-05 uM): 98.5 and 92.5 and 100.2
- Human alpha thrombin inhibition, slope normalized to DMSO (human α-thrombin; peptide 3.26E-02 uM): 95.9 and 95.8 and 99.6
- Human alpha thrombin inhibition, slope normalized to DMSO (human α-thrombin; peptide 3.33E+01 uM): 78.3 and 75.1 and 78.9
- Human alpha thrombin inhibition, slope normalized to DMSO (human α-thrombin; peptide 4.07E-03 uM): 94.7 and 93.4 and 96.1
- Human alpha thrombin inhibition, slope normalized to DMSO (human α-thrombin; peptide 4.17E+00 uM): 83.3 and 83.5 and 89.8
- Human alpha thrombin inhibition, slope normalized to DMSO (human α-thrombin; peptide 5.09E-04 uM): 93.5 and 91.5 and 93.7
- Human alpha thrombin inhibition, slope normalized to DMSO (human α-thrombin; peptide 5.21E-01 uM): 92.8 and 90.2 and 92.1
- Human alpha thrombin inhibition, slope normalized to DMSO (human α-thrombin; peptide 6.36E-05 uM): 97.2 and 93.5 and 90.4
- Human alpha thrombin inhibition, slope normalized to DMSO (human α-thrombin; peptide 6.51E-02 uM): 99.6 and 94.9 and 95.6
- Human alpha thrombin inhibition, slope normalized to DMSO (human α-thrombin; peptide 6.67E+01 uM): 77.2 and 75.7 and 77.5
- Human alpha thrombin inhibition, slope normalized to DMSO (human α-thrombin; peptide 8.14E-03 uM): 97.4 and 94.0 and 99.7
- Human alpha thrombin inhibition, slope normalized to DMSO (human α-thrombin; peptide 8.33E+00 uM): 84.1 and 83.5 and 81.2
- remaining at 8 h [1]: 62 ± 15%
- SIF stability, Residual peptide Average (porcine pancreatin): 62.00
- SIF stability, Residual peptide (porcine pancreatin; single replicates R1-R3): 68.18 and 45.06 and 72.76
- PAMPA permeability: % permeability [2]: 5.7 ± 1.3%
- Papp at 50 μM [2]: 0.38 ×10⁻⁶ cm/s
- Permeability% Average [2]: 5.7%
- Permeability% R1 [2]: 7.10%
- Permeability% R3 [2]: 4.56%
- microsomal CLint [3, 5]: 13.1 µL/min/mg
- microsomal CLint [3, 6]: 42.3 µL/min/mg
- microsomal CLint [3, 7]: 68.3 µL/min/mg
- half-life [3, 8]: 32.8 min
- half-life [3, 9]: 20.3 min
- half-life [3, 10]: 53 ± 38 min
- microsomal CLint [3, 11]: 41 ± 23 µL/min/mg
- Rat alpha thrombin inhibition, slope normalized to DMSO (rat α-thrombin; [4]): 43.4 and 70.6
- Rat alpha thrombin inhibition, slope normalized to DMSO (rat α-thrombin; peptide 1.67E+01 uM): 56.7 and 58.6
- Rat alpha thrombin inhibition, slope normalized to DMSO (rat α-thrombin; peptide 2.08E+00 uM): 84.9 and 85.4 and 90.4
- Rat alpha thrombin inhibition, slope normalized to DMSO (rat α-thrombin; peptide 3.33E+01 uM): 53.0 and 50.7 and 58.4
- Rat alpha thrombin inhibition, slope normalized to DMSO (rat α-thrombin; peptide 4.17E+00 uM): 73.8 and 75.0 and 69.4
- Rat alpha thrombin inhibition, slope normalized to DMSO (rat α-thrombin; peptide 6.67E+01 uM): 39.7 and 48.9 and 63.6
- Rat alpha thrombin inhibition, slope normalized to DMSO (rat α-thrombin; peptide 8.33E+00 uM): 59.4 and 61.3 and 72.8
- SGF stability, Residual peptide Average (porcine pepsin): 94.69
- SGF stability, Residual peptide (porcine pepsin): 92.56 and 99.47 and 92.05
- remaining at 8 h (porcine pepsin): 95 ± 4%
SMILES: CC(C)[C@@H]1NC(=O)[C@@H](NC(=O)c2ccc(Cl)s2)CNC(=O)CCSCc2cccc(n2)CSCCNC1=O [compound 19]
